Reference: the NIST ThermoML archive (doi:10.1016/j.fluid.2018.06.013)
Numbers after ± are expanded uncertainties.

Assay: activity coefficient (dimensionless); of the first substance listed, at infinite dilution; xn = mol fraction of the nth substance listed
Details: 100 kPa, Liquid, Chromatography, x1 = 0

SMILES	activity coefficient (313.15 K)	activity coefficient (323.15 K)	activity coefficient (343.15 K)	activity coefficient (363.15 K)	activity coefficient (373.15 K)
CCCCCCC [heptane] + CCCC[N+]1(C)CCCC1.N#CN=C=[N-]	79.1 ± 8.3	74.6 ± 7.9	66.5 ± 7	60.2 ± 6.3	53.6 ± 5.6
CCO [ethanol] + CCCC[N+]1(C)CCCC1.N#CN=C=[N-]	0.533 ± 0.058	0.525 ± 0.057	0.52 ± 0.06	0.519 ± 0.057	0.521 ± 0.057
Cc1cccc(C)c1 [1,3-dimethylbenzene] + CCCC[N+]1(C)CCCC1.N#CN=C=[N-]	3.36 ± 0.35	3.47 ± 0.36	3.58 ± 0.38	3.74 ± 0.39	3.81 ± 0.4
CCCCCCCC [octane] + CCCC[N+]1(C)CCCC1.N#CN=C=[N-]	119 ± 13	111 ± 12	96 ± 10	86 ± 9.1	81 ± 8.5
CCCCO [butan-1-ol] + CCCC[N+]1(C)CCCC1.N#CN=C=[N-]	0.897 ± 0.092	0.873 ± 0.089	0.844 ± 0.087	0.836 ± 0.086	0.814 ± 0.084
CC(C)=O [acetone] + CCCC[N+]1(C)CCCC1.N#CN=C=[N-]	0.907 ± 0.093	0.91 ± 0.09	0.978 ± 0.099	1.04 ± 0.11	1.06 ± 0.11
C#CCCCC [1-hexyne] + CCCC[N+]1(C)CCCC1.N#CN=C=[N-]	3.81 ± 0.4	3.98 ± 0.42	4.32 ± 0.45	4.61 ± 0.48	4.77 ± 0.5
Cc1ccccc1 [toluene] + CCCC[N+]1(C)CCCC1.N#CN=C=[N-]	2.07 ± 0.22	2.14 ± 0.22	2.3 ± 0.24	2.43 ± 0.26	2.48 ± 0.26
Cc1ccccc1C [1,2-dimethylbenzene] + CCCC[N+]1(C)CCCC1.N#CN=C=[N-]	2.69 ± 0.28	2.75 ± 0.29	2.91 ± 0.31	3.1 ± 0.3	3.18 ± 0.33
CCCC(=O)OC [methyl butanoate] + CCCC[N+]1(C)CCCC1.N#CN=C=[N-]	2.92 ± 0.31	3 ± 0.32	3.16 ± 0.33	3.25 ± 0.34	3.34 ± 0.35
CC(C)O [propan-2-ol] + CCCC[N+]1(C)CCCC1.N#CN=C=[N-]	0.744 ± 0.077	0.719 ± 0.075	0.714 ± 0.074	0.711 ± 0.074	0.696 ± 0.073
CCC=O [propanal] + CCCC[N+]1(C)CCCC1.N#CN=C=[N-]	1.04 ± 0.11	1.05 ± 0.11	1.1 ± 0.1	1.16 ± 0.12	1.21 ± 0.12
C=CCCCC [hex-1-ene] + CCCC[N+]1(C)CCCC1.N#CN=C=[N-]	21 ± 2.2	20.3 ± 2.1	19.3 ± 2	18.4 ± 1.9	18.6 ± 2
CC(C)OC(C)C [diisopropyl ether] + CCCC[N+]1(C)CCCC1.N#CN=C=[N-]	19.4 ± 2	18.8 ± 2	19.1 ± 2	18.6 ± 2	18.3 ± 1.9
C#CCCCCC [1-heptyne] + CCCC[N+]1(C)CCCC1.N#CN=C=[N-]	5.76 ± 0.61	5.95 ± 0.63	6.39 ± 0.67	6.76 ± 0.71	6.92 ± 0.73
C=CCCCCC [1-heptene] + CCCC[N+]1(C)CCCC1.N#CN=C=[N-]	31.5 ± 3.3	30.4 ± 3.2	29.2 ± 3.1	27.8 ± 2.9	27.7 ± 2.9
C1CCOC1 [tetrahydrofuran] + CCCC[N+]1(C)CCCC1.N#CN=C=[N-]	1.34 ± 0.14	1.39 ± 0.14	1.48 ± 0.15	1.56 ± 0.16	1.6 ± 0.17
CCCC=O [butanal] + CCCC[N+]1(C)CCCC1.N#CN=C=[N-]	1.4 ± 0.14	1.46 ± 0.15	1.53 ± 0.16	1.62 ± 0.17	1.67 ± 0.17
Cc1ccc(C)cc1 [1,4-dimethylbenzene] + CCCC[N+]1(C)CCCC1.N#CN=C=[N-]	3.24 ± 0.34	3.24 ± 0.34	3.47 ± 0.36	3.63 ± 0.38	3.73 ± 0.39
C#CCCCCCC [1-octyne] + CCCC[N+]1(C)CCCC1.N#CN=C=[N-]	8.87 ± 0.93	9.03 ± 0.95	9.41 ± 0.99	9.79 ± 1	9.87 ± 1
CCC[N+](=O)[O-] [1-nitropropane] + CCCC[N+]1(C)CCCC1.N#CN=C=[N-]	0.721 ± 0.075	0.74 ± 0.077	0.789 ± 0.081	0.827 ± 0.085	0.838 ± 0.086
CCCO [propan-1-ol] + CCCC[N+]1(C)CCCC1.N#CN=C=[N-]	0.649 ± 0.068	0.645 ± 0.068	0.648 ± 0.068	0.665 ± 0.07	0.638 ± 0.067
CC(C)CO [2-methyl-1-propanol] + CCCC[N+]1(C)CCCC1.N#CN=C=[N-]	0.872 ± 0.089	0.835 ± 0.086	0.785 ± 0.081	0.786 ± 0.081	0.764 ± 0.079
C1=CCCCC1 [cyclohexene] + CCCC[N+]1(C)CCCC1.N#CN=C=[N-]	9.06 ± 0.95	8.78 ± 0.92	8.65 ± 0.91	8.48 ± 0.89	8.26 ± 0.87
CCC(=O)CC [pentan-3-one] + CCCC[N+]1(C)CCCC1.N#CN=C=[N-]	1.7 ± 0.18	1.76 ± 0.18	1.9 ± 0.2	1.99 ± 0.21	2.04 ± 0.21
C=C(C)c1ccccc1 [(1-methylethenyl)benzene] + CCCC[N+]1(C)CCCC1.N#CN=C=[N-]	2.2 ± 0.23	2.37 ± 0.25	2.67 ± 0.28	2.89 ± 0.3	3.02 ± 0.32
C1COCCO1 [1,4-dioxane] + CCCC[N+]1(C)CCCC1.N#CN=C=[N-]	0.909 ± 0.093	0.962 ± 0.098	1.05 ± 0.11	1.13 ± 0.12	1.17 ± 0.12
C=CCCCCCC [oct-1-ene] + CCCC[N+]1(C)CCCC1.N#CN=C=[N-]	47.8 ± 5	46.3 ± 4.9	42.8 ± 4.5	40.3 ± 4.2	39 ± 4.1

Further lines, results first:

activity coefficient (313.15 K)	activity coefficient (323.15 K)	activity coefficient (343.15 K)	activity coefficient (363.15 K)	activity coefficient (373.15 K)	SMILES
0.807 ± 0.083	0.845 ± 0.087	0.929 ± 0.095	1.01 ± 0.1	1.05 ± 0.11	c1ccsc1 [thiophene] + CCCC[N+]1(C)CCCC1.N#CN=C=[N-]
1.38 ± 0.14	1.4 ± 0.14	1.49 ± 0.15	1.6 ± 0.2	1.62 ± 0.17	c1ccccc1 [benzene] + CCCC[N+]1(C)CCCC1.N#CN=C=[N-]
0.875 ± 0.09	0.888 ± 0.091	0.859 ± 0.088	0.869 ± 0.089	0.881 ± 0.09	CCC(C)O (stereo not given) [butan-2-ol] + CCCC[N+]1(C)CCCC1.N#CN=C=[N-]
9.56 ± 1	9.39 ± 0.99	9.65 ± 1	9.77 ± 1	9.93 ± 1	CCC(C)(C)OC [2-methoxy-2-methylbutane] + CCCC[N+]1(C)CCCC1.N#CN=C=[N-]
3.32 ± 0.35	3.43 ± 0.36	3.52 ± 0.37	3.7 ± 0.4	3.77 ± 0.4	CCc1ccccc1 [ethylbenzene] + CCCC[N+]1(C)CCCC1.N#CN=C=[N-]
17.2 ± 1.8	16.9 ± 1.8	16.9 ± 1.8	16.7 ± 1.8	16.1 ± 1.7	CCOC(C)(C)C [2-ethoxy-2-methylpropane] + CCCC[N+]1(C)CCCC1.N#CN=C=[N-]
172 ± 18	154 ± 16	133 ± 14	120 ± 13	114 ± 12	CCCCCCCCC [nonane] + CCCC[N+]1(C)CCCC1.N#CN=C=[N-]
0.336 ± 0.042	0.333 ± 0.041	0.339 ± 0.042	0.348 ± 0.043	0.353 ± 0.043	CO [methanol] + CCCC[N+]1(C)CCCC1.N#CN=C=[N-]
2.07 ± 0.22	2.09 ± 0.22	2.22 ± 0.23	2.33 ± 0.24	2.4 ± 0.25	CCC(=O)OC [methyl propanoate] + CCCC[N+]1(C)CCCC1.N#CN=C=[N-]
104 ± 11	98.2 ± 10	89.4 ± 9.4	83.7 ± 8.8	78.7 ± 8.3	C=CCCCCCCCC [1-decene] + CCCC[N+]1(C)CCCC1.N#CN=C=[N-]
0.659 ± 0.069	0.668 ± 0.07	0.693 ± 0.072	0.72 ± 0.08	0.728 ± 0.076	CC#N [acetonitrile] + CCCC[N+]1(C)CCCC1.N#CN=C=[N-]
6.25 ± 0.66	6.32 ± 0.66	6.55 ± 0.69	6.92 ± 0.73	7.15 ± 0.75	COC(C)(C)C [2-methoxy-2-methylpropane] + CCCC[N+]1(C)CCCC1.N#CN=C=[N-]
1.73 ± 0.18	1.79 ± 0.19	1.89 ± 0.2	1.96 ± 0.21	2.02 ± 0.21	CCCC(C)=O [pentan-2-one] + CCCC[N+]1(C)CCCC1.N#CN=C=[N-]
